# According to US10323022B2, “Pyrrolidinyl urea, pyrrolidinyl thiourea and pyrrolidinyl guanidine compounds as TrkA kinase inhibitors” (Array BioPharma Inc., priority 2011, dated 2019):
# Biological target: TrkA (Homo sapiens (Human), UniProt P04629)
# Test: TrkA Omnia Assay
# Type: biochemical
# Conditions: averaged IC50; 20 nM enzyme, 500 μM ATP, 10 μM peptide substrate
# In short: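 Continuous fluorescent kinase read-out (ex 360 nm, em 485 nm) over 70 min, with initial rates fitted to 4- or 5-parameter logistic curves for IC50. Final conditions: 500 μM ATP, 10 μM Omnia Tyr Peptide #4, 20 nM TrkA, MOPS pH 7.5 buffer with MgCl2 and Triton X-100; enzyme and compound preincubated 10 min at ambient temperature.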
# Sequence of TrkA (P04629 33-796): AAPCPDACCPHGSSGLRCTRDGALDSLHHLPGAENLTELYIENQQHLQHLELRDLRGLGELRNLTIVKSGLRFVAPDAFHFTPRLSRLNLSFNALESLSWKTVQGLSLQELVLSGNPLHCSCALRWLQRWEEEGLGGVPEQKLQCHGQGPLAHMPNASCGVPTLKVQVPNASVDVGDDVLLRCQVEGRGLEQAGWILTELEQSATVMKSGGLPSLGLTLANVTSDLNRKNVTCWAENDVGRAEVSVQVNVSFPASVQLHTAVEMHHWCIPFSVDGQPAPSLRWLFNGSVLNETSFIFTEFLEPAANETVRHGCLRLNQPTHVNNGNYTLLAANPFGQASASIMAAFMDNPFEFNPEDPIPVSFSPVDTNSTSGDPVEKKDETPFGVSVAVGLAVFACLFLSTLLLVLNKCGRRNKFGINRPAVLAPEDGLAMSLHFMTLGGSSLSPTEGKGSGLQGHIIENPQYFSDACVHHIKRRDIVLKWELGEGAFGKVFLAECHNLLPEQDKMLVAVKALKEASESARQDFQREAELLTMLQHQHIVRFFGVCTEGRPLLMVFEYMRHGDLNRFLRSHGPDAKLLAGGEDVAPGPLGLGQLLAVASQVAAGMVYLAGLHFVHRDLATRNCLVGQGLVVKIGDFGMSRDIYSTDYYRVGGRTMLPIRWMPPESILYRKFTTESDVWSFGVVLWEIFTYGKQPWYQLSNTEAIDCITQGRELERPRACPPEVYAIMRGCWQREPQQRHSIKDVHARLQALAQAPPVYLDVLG
row,IC50 [nM],SMILES
1,< 100,"COCC(C(=O)OC)N1CC(NC(=O)Nc2c3c(nn2-c2ccccc2)CCC3)[C@H](c2ccccc2)C1 (stereo in doubt) [Example 258, methyl 3-methoxy-2-((trans)-3-phenyl-4-(3-(2-phenyl-2,4,5,6-tetrahydrocyclopenta[c]pyrazol-3-yl)ureido)pyrrolidin-1-yl)propanoate]"
2,< 100,"COCCN1C[C@@H](NC(=O)Nc2cc(C(C)(C)C)nn2-c2ccccc2)[C@H](c2ccccc2)C1 [Example 1, 1-(3-tert-butyl-1-phenyl-H-pyrazol-5-yl)-3-(trans-1-(2-methoxyethyl)-4-phenylpyrrolidin-3-yl)urea]"
3,1000 to 10000,"COCCN1C[C@@H](NC(=O)Nc2cc(C(C)(C)C)nn2C2CCOCC2)[C@H](c2ccccc2)C1 [Example 34, 1-(3-tert-butyl-1-(tetrahyro-2H-pyran-4-yl)-1H-pyrazol-5-yl)-3-(trans-1-(2-methoxyethyl)-4-phenylpyrrolidin-3-yl)urea]"
4,< 100,"COCCN1C[C@@H](NC(=O)Nc2c3c(nn2-c2ccccc2)C(C)(C)CC3)[C@H](c2ccccc2)C1 [Example 36, 1-(6,6-dimethyl-2-phenyl-2,4,5,6-tetrahydro-yclopenta [c]pyrazol-3-yl)-3-(trans-1-(2-methoxyethyl)-4-phenyl-pyrrolidin-3-yl)urea]"
5,1000 to 10000,"COCCN1CC(c2sc(C)nc2C)[C@H](NC(=O)Nc2c3c(nn2-c2ccccc2)CCC3)C1 (stereo partly drawn) [Example 45, 1-((3,4-trans)-4-(2,4-dimethylthiazol-5-yl)-1-(2-methoxyethyl)pyrrolidin-3-yl)-3-(2-phenyl-2,4,5,6-tetrahydrocyclopenta[c]pyrazol-3-yl)urea]"
6,100 to 1000,"COCCN1CC(NC(=O)Nc2c3c(nn2-c2ccccc2)CCC3)[C@H](c2cccc(OC)c2)C1 (stereo partly drawn) [Example 48, 1-((3,4-trans)-1-(2-methoxyethyl)-4-(3-methoxyphenyl)pyrrolidin-3-yl)-3-(2-phenyl-2,4,5,6-tetrahydrocyclopenta[c]pyrazol-3-yl)urea]"
7,< 100,"COCCN1C[C@@H](NC(=O)Nc2cc(C(F)(F)F)nn2-c2ccccc2)[C@H](c2ccccc2)C1 [Example 53, 1-((3S,4R)-1-(2-methoxyethyl)-4-phenylpyrrolidin-3-yl)-3-(1-phenyl-3-(trifluoromethyl)-1H-pyrazol-5-yl)urea]"
8,1000 to 10000,"COCCN1C[C@@H](NC(=O)Nc2c(C)c(-c3ccccc3)nn2C)[C@H](c2ccccc2)C1 [Example 54, 1-(1,4-dimethyl-3-phenyl-1H-pyrazol-5-yl)-3-((3S,4R)-1-(2-methoxy-ethyl)-4-phenylpyrrolidin-3-yl)urea]"
9,100 to 1000,"COCCN1C[C@@H](NC(=O)Nc2cc(C3CC3)nn2C)[C@H](c2cc(F)cc(F)c2)C1 [Example 55, 1-(3-cyclopropyl-1-methyl-1H-pyrazol-5-yl)-3-((3S,4R)-4-(3,5-difluorophenyl)-1-(2-methoxyethyl)pyrrolidin-3-yl)urea]"
10,< 100,"COCCN1C[C@@H](NC(=O)Nc2cc(-c3ccccn3)nn2C)[C@H](c2cc(F)cc(F)c2)C1 [Example 56, 1-((3S,4R)-4-(3,5-difluorophenyl)-1-(2-methoxyethyl)pyrrolidin-3-yl)-3-(1-methyl-3-(pyridin-2-yl)-1H-pyrazol-5-yl)urea]"
11,< 100,"COCCN1C[C@@H](NC(=O)Nc2cc(-c3cccnc3)nn2C)[C@H](c2cc(F)cc(F)c2)C1 [Example 57, 1-((3S,4R)-4-(3,5-difluorophenyl)-1-(2-methoxyethyl)pyrrolidin-3-yl)-3-(1-methyl-3-(pyridin-3-yl)-1H-pyrazol-5-yl)urea]"
12,< 100,"COCCN1C[C@@H](NC(=O)Nc2cc(-c3cnn(C)c3)nn2C)[C@H](c2ccc(F)c(F)c2)C1 [Example 58, 1-((3S,4R)-4-(3,4-difluorophenyl)-1-(2-methoxyethyl)pyrrolidin-3-yl)-3-(1,1′-dimethyl-1H,1′H-3,4′-bipyrazol-5-yl)urea]"
13,< 100,"COCCN1C[C@@H](NC(=O)Nc2cc(-c3cccc(C#N)c3)nn2C)[C@H](c2ccc(F)c(F)c2)C1 [Example 59, 1-(3-(3-cyanophenyl)-1-methyl-1H-pyrazol-5-yl)-3-((3S,4R)-4-(3,4-difluorophenyl)-1-(2-methoxyethyl)pyrrolidin-3-yl)urea]"
14,< 100,"COCCN1C[C@@H](NC(=O)Nc2cc(-c3ccc(C#N)cc3)nn2C)[C@H](c2ccc(F)c(F)c2)C1 [Example 60, 1-(3-(4-cyanophenyl)-1-methyl-1H-pyrazol-5-yl)-3-((3S,4R)-4-(3,4-difluorophenyl)-1-(2-methoxyethyl)pyrrolidin-3-yl)urea]"
15,< 100,"COCCN1C[C@@H](NC(=O)Nc2cc(-c3cccc4nccn34)nn2C)[C@H](c2ccc(F)c(F)c2)C1 [Example 61, 1-((3S,4R)-4-(3,4-difluorophenyl)-1-(2-methoxyethyl)pyrrolidin-3-yl)-3-(3-(imidazo[1,2-a]pyridin-5-yl)-1-methyl-1H-pyrazol-5-yl)urea]"
16,< 100,"COCCN1C[C@@H](NC(=O)Nc2c(Cl)c(-c3ccccc3)nn2-c2ccccc2)[C@H](c2ccc(F)c(F)c2)C1 [Example 62, 1-(4-chloro-1,3-diphenyl-1H-pyrazol-5-yl)-3-((3S,4R)-4-(3,4-difluorophenyl)-1-(2-methoxyethyl)pyrrolidin-3-yl)urea]"
17,< 100,"COCCN1C[C@@H](NC(=O)Nc2c(Br)c(-c3ccccc3)nn2-c2ccccc2)[C@H](c2ccc(F)c(F)c2)C1 [Example 63, 1-(4-bromo-1,3-diphenyl-1H-pyrazol-5-yl)-3-((3S,4R)-4-(3,4-difluorophenyl)-1-(2-methoxyethyl)pyrrolidin-3-yl)urea]"
18,< 100,"COCCN1C[C@@H](NC(=O)Nc2c(Cl)c(C)nn2-c2ccccc2)[C@H](c2ccc(F)c(F)c2)C1 [Example 64, 1-(4-chloro-3-methyl-1-phenyl-1H-pyrazol-5-yl)-3-((3S,4R)-4-(3,4-difluorophenyl)-1-(2-methoxyethyl)pyrrolidin-3-yl)urea]"
19,< 100,"COCCN1C[C@@H](NC(=O)Nc2c(-c3ccccc3)c(C)nn2C)[C@H](c2ccc(F)c(F)c2)C1 [Example 65, 1-((3S,4R)-4-(3,4-difluorophenyl)-1-(2-methoxyethyl)pyrrolidin-3-yl)-3-(1,3-dimethyl-4-phenyl-1H-pyrazol-5-yl) urea]"
20,< 100,"COCCN1C[C@@H](NC(=O)Nc2c(C#N)c(C)nn2-c2ccccc2)[C@H](c2ccc(F)c(F)c2)C1 [Example 66, 1-(4-cyano-3-methyl-1-phenyl-1H-pyrazol-5-yl)-3-((3S,4R)-4-(3,4-difluorophenyl)-1-(2-methoxyethyl)pyrrolidin-3-yl)urea]"
21,100 to 1000,"COCCN1C[C@@H](NC(=O)Nc2c(Cl)c(-c3ccccc3)nn2C)[C@H](c2ccc(F)c(F)c2)C1 [Example 67, 1-(4-chloro-1-methyl-3-phenyl-1H-pyrazol-5-yl)-3-((3S,4R)-4-(3,4-difluorophenyl)-1-(2-methoxyethyl)pyrrolidin-3-yl)urea]"
22,1000 to 10000,"COCCN1C[C@@H](NC(=O)Nc2c(Br)c(-c3ccccc3)nn2C)[C@H](c2ccc(F)c(F)c2)C1 [Example 68, 1-(4-bromo-1-methyl-3-phenyl-1H-pyrazol-5-yl)-3-((3S,4R)-4-(3,4-difluorophenyl)-1-(2-methoxyethyl)pyrrolidin-3-yl)urea]"
23,< 100,"COCCN1C[C@@H](NC(=O)Nc2c(C#N)c(CC#N)nn2-c2ccccc2)[C@H](c2ccc(F)c(F)c2)C1 [Example 70, 1-(4-cyano-3-(cyano-methyl)-1-phenyl-1H-pyrazol-5-yl)-3-((3S,4R)-4-(3,4-difluorophenyl)-1-(2-methoxyethyl)pyrrolidin-3-yl)urea]"
24,< 100,"COCCN1C[C@@H](NC(=O)Nc2cc(C(C)(C)C#N)nn2-c2ccccc2)[C@H](c2ccc(F)c(F)c2)C1 [Example 71, 1-(3-(2-cyanopropan-2-yl)-1-phenyl-1H-pyrazol-5-yl)-3-((3S,4R)-4-(3,4-difluorophenyl)-1-(2-methoxyethyl)pyrrolidin-3-yl)urea]"
25,< 100,"CCc1nn(-c2ccccc2)c(NC(=O)N[C@@H]2CN(CCOC)C[C@H]2c2ccc(F)c(F)c2)c1C [Example 72, 1-((3S,4R)-4-(3,4-difluorophenyl)-1-(2-methoxyethyl)pyrrolidin-3-yl)-3-(3-ethyl-4-methyl-1-phenyl-1H-pyrazol-5-yl)urea]"
26,< 100,"COCCN1C[C@@H](NC(=O)Nc2cc(-c3cnn(C)c3)nn2-c2ccccc2)[C@H](c2ccc(F)c(F)c2)C1 [Example 73, 1-((3S,4R)-4-(3,4-difluorophenyl)-1-(2-methoxyethyl)pyrrolidin-3-yl)-3-(1′-methyl-1-phenyl-1H,1′H-3,4′-bipyrazol-5-yl)urea]"
27,< 100,"COCCN1C[C@@H](NC(=O)Nc2c(C)c(OCC3COC3)nn2-c2ccccc2)[C@H](c2ccc(F)c(F)c2)C1 [Example 74, 1-((3S,4R)-4-(3,4-difluorophenyl)-1-(2-methoxyethyl)pyrrolidin-3-yl)-3-(4-methyl-3-(oxetan-3-ylmethoxy)-1-phenyl-1H-pyrazol-5-yl)urea]"
28,< 100,"COCCN1C[C@@H](NC(=O)Nc2c(C)c(OCC3(C)COC3)nn2-c2ccccc2)[C@H](c2ccc(F)c(F)c2)C1 [Example 75, 1-((3S,4R)-4-(3,4-difluorophenyl)-1-(2-methoxyethyl)pyrrolidin-3-yl)-3-(4-methyl-3-((3-methyloxetan-3-yl)methoxy)-1-phenyl-1H-pyrazol-5-yl)urea]"
29,< 100,"COCCN1C[C@@H](NC(=O)Nc2c(C)c(OC[C@H]3COC(C)(C)O3)nn2-c2ccccc2)[C@H](c2ccc(F)c(F)c2)C1 [Example 76, 1-((3S,4R)-4-(3,4-difluorophenyl)-1-(2-methoxyethyl)pyrrolidin-3-yl)-3-(3-(((S)-2,2-dimethyl-1,3-dioxolan-4-yl)methoxy)-4-methyl-1-phenyl-1H-pyrazol-5-yl)urea]"
